Publication PMC6768041 (Chemistry Central Journal, 2018)

What was measured:
[1] = DPPH radical scavenging assay; settings: mean ± SEM, n = 3
Protocol: DPPH (2,2-diphenyl-1-picryl-hydrazyl-hydrate) free radical process is an antioxidant assay based on electron-transfer that turns violet color in ethanol. The antioxidant activity was based on free radical scavenging effect towards stable DPPH• radical upon spectrophotometric reaction according to the method reported in the literature. Briefly, solutions of synthesized compounds were prepared in fifty milliliters of various concentrations (25, 50, 75, and 100) µg/mL dissolved in methanol, was added to 5 mL of a 0.004% methanol solution of DPPH. The stock solution was prepared with 0.01% DPPH• in ethanol/water (1:1). While sample solutions were prepared as 5 mL DPPH• solution was mixed with 5 mL ascorbic acid solution then shaken vigorously and kept in the dark at 37 °C. The samples were incubated at the 37 °C temperature for 30 min in the dark chamber subsequently, absorbance was measured. The marketable recognized antioxidant, ascorbic acid was utilized for contrast or as a positive control. Initially, the blank spectrum for ethanol/water was recorded subsequently the spectrophotometric titration was carried out with various concentrations of synthesized compounds. The absorbance was recorded at 517 nm with UV/Vis Epoch ELISA reader, and antioxidant activity was measured as a decrease in absorbance of DPPH•. The IC50 values of free radical DPPH, based on control reading were calculated by the following equation. %inhibition of DPPH radical=Abr-Aar/Abr×100 where Abr is the absorbance prior to reaction and Aar is the absorbance after reaction with DPPH•.

[2] = Hydrogen peroxide scavenging (H2O2) assay; settings: mean ± SEM, n = 3; read-out: H2O2 radical scavenging IC50
Protocol: Amongst the reactive oxygen species (ROS), H2O2 is an essential radical as even though it is not lethal of its own accord, but can be changed to further even highly toxic radicals, for instance, OH^• by hypochlorous acid or Fenton reaction by the oxidases enzymes. A solution of H2O2 (40 µM) was added in phosphate buffer saline ([…] pH 7.4). Different quantities of test and references compounds in DMSO were added to 2 mL of hydrogen peroxide solution in buffer solution. Subsequently, upon to 10 min, the absorbance was calculated at 230 nm against a blank solution including phosphate buffer without H2O2 [31]. The percentage of scavenging H2O2 was estimated by the formula in this way: %ScavengingH2O2=AS-AT/Ai×100 where AS is the absorbance of control and AT is the absorbance of the test.

hMAO-B [3] = target: T1, hMAO-B (Homo sapiens, UniProt P27338); test: hMAO-B inhibition, Amplex Red fluorometric assay; format: biochemical; settings: recombinant hMAO-B, p-tyramine substrate; mean SEM
T1 construct: host or cells: insect cells (BTI-TN-5B14), recombinant baculovirus
T1 sequence (P27338 1-520): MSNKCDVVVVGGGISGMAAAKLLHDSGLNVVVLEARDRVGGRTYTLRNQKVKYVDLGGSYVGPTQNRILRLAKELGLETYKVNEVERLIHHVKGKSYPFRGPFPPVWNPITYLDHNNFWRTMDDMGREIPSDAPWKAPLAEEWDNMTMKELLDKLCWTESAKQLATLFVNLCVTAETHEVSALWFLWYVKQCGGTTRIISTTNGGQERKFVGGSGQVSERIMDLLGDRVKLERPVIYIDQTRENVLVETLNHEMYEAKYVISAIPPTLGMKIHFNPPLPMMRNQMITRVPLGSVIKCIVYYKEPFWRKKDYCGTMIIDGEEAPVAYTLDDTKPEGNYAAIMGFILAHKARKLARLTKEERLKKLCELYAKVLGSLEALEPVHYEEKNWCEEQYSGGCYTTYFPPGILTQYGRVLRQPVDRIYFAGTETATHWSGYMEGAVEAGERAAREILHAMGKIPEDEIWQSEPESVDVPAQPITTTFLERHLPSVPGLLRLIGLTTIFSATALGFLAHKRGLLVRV
Text: (§3) The biological hMAO activity evaluation of the test drugs was examined by quantifying their action on the generation of H2O2 by p-tyramine (general substrate for hMAO-B and hMAO-A), utilizing the Amplex Red MAO assay kit (Sigma USA) and MAO isoforms (microsomal) obtained from insect cells (BTI-TN-5B14) expressed as recombinant baculovirus consisting cDNA probes for hMAO-A or hMAO-B. Reactions were monitored by thin layer chromatography TLC executed over silica gel precoated plates (0.25 mm) purchased from Merck, envisioned of single spots was carried in iodine and UV chambers, in mobile media TLC- Benzene:Chloroform (7:3).
(§4) All synthesized compounds were evaluated for their capability to inhibit the MAO-A and MAO-B isoforms of human MAO by a fluorometric method. The MAO inhibitory property of the test compounds was examined with the recombinant human enzymes using an Amplex Red Monoamine Oxidase Assay Kit (Sigma USA). The incessant peroxidase-linked photometric assay was performed on the fluorometer. […] Distilled water was used as a negative control. In brief, 0.1 mL of sodium phosphate buffer (0.05 M, pH 7.4) with the test new compounds/reference inhibitors in different concentrations and sufficient quantity of recombinant hMAO-A or hMAO-B requisite and in step to complete our investigational protocol with the equal reaction velocity, (hMAO-A: 1.1 mg protein; explicit activity: 150 nmol of p-tyramine oxidized to p-hydroxyphenylacetaldehyde/min/mg protein; hMAO-B: 7.5 mg protein; explicit activity: 22 nmol of p-tyramine changed/min/mg protein) were incubated for 15 min at 37 °C, placed in the dark fluorometric compartment. After incubation, the effect was attained through the addition of 200 mM Amplex Red reagent (final concentrations), 1 mM p-tyramine, and 1 U/mL horseradish peroxidase. Finally, the generation of hydrogen peroxide and, subsequently, of resorufin was measured at 37 °C in fluorescence reader (λemission, 585 nm, λexcitation, 530 nm) after 15 min, by the time fluorescence amplified linearly. All the control experiments were performed concurrently by changing the reference inhibitors and test compounds with suitable dilutions in the solvents. Moreover, the activity of abovementioned evaluated compounds to alter the fluorescence produced in the combination reaction by (e.g. for reacting with Amplex Red reagent directly) non-enzymatic inhibition was identified by addition of these compounds to solutions having just the Amplex Red reagent in a sodium phosphate buffer. […] The fluorescence reading was computed by subtraction of the background activity and was evaluated from wells with all components not including the hMAO isoforms that was substituted by a sodium phosphate buffer solution. All data was processed in Microsoft Excel, to calculate IC50 values.

hMAO-A [4] = target: T2, hMAO-A (Homo sapiens, UniProt P21397); test: hMAO-A inhibition, Amplex Red fluorometric assay; format: biochemical; settings: for Selectivity index: IC50 (MAO-A)/IC50 (MAO-B); for IC50: recombinant hMAO-A, p-tyramine substrate, mean SEM;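 as to all read-outs here: recombinant human MAO-A and MAO-B from baculovirus-infected insect cell microsomes, H2O2 formation detected fluorometrically via Amplex Red with horseradish peroxidase, background from enzyme-free wells subtracted, distilled water negative control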
T2 construct: host or cells: insect cells (BTI-TN-5B14), recombinant baculovirus
T2 sequence (P21397 1-527): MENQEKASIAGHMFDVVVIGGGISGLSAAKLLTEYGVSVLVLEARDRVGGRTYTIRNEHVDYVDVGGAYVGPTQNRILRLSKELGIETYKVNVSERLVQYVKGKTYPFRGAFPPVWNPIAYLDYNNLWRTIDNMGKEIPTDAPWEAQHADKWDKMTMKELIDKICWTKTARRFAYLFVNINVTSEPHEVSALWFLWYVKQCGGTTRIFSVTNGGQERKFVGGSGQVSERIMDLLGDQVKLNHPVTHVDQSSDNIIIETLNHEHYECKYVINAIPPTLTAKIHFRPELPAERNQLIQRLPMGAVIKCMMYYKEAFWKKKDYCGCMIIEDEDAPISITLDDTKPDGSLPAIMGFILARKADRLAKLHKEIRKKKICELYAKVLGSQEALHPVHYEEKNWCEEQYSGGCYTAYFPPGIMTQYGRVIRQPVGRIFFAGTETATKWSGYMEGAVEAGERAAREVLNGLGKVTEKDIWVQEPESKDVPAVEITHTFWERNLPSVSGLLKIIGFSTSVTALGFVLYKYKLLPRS
Text: as §3, §4

rMAO-B = settings: cited from earlier work
monoamine oxidase-B = settings: cited from earlier work
rMAO-A = settings: cited from earlier work
hMAO-A [5] = target: T2, hMAO-A; test: Enzyme kinetics of MAO-A (Lineweaver–Burk plots); format: biochemical; settings: tyramine substrate
Protocol: (§1) A set of Lineweaver–Burk plots was constructed in the presence and absence of different concentrations of compound 7 and 5 for hMAO-A and hMAO-B respectively. The graph comprises of five plots, every plot raised by quantifying MAO-B and MAO-A catalytic rate at various concentrations of substrate (0.5–5.0 µM).
(§2) Kinetic constants of steady-state (Vmax, maximum rate, and Km, Michaelis constant,) were measured by studying the effects of substrate concentration on the primary rate of reaction of MAO-A or MAO-B in absence and presence of compounds at diverse concentrations. To examine the mode of action by synthesized derivatives all of them were solubilized in dimethyl sulfoxide, with the concentration of 1%, and utilized in a wide concentration range. Construction of Lineweaver–Burk plots illustrated the mode of MAO inhibition. Selectivity index SI (Ki (MAO-A)/Ki (MAO-B)) was also computed. Enzyme kinetics for the interaction of the compounds with the MAO enzymes was computed on the GraphPad Prism 7 software.

hMAO-B [6] = target: T1, hMAO-B; test: Enzyme kinetics of MAO-B (Lineweaver–Burk plots); format: biochemical; settings: several inhibitor concentrations, tyramine substrate
Protocol: as §1, §2

MAO-A = settings: cited from earlier work
hMAO-A [7] = target: T2, hMAO-A; settings: cited from earlier work
MAO-B = settings: at high concentrations 100 µM; cited from earlier work

SMILES	IC50 [1] [µM]	IC50 [2] [µM]	IC50 (hMAO-B [3]) [µM]	Selectivity index (hMAO-A [4])	IC50 (hMAO-A [4]) [µM]	melting point [°C]	further results
O=C(/C=C/c1ccc(O)c(O)c1)Oc1ccc2ccccc2c1 [Compound 11, (E)-naphthalen-2-yl 3-(3,4-dihydroxyphenyl)acrylate]	12.95 ± 0.031	11.34 ± 0.045	21.48 ± 0.056	1.233	24.34 ± 0.011	176 to 176.9	
COc1cc(C=O)ccc1OC(=O)/C=C/c1ccc(O)c(O)c1 [Compound 6, (E)-4-formyl-2-methoxyphenyl 3-(3,4-dihydroxyphenyl)acrylate]	11.34 ± 0.001	21.69 ± 0.034	16.25 ± 0.035	1.252	20.36 ± 0.002	150 to 151	MAO isoform selectivity in words (hMAO-A [4]; hMAO-A vs hMAO-B): selective for hMAO-B
O=c1oc2c(O)c(O)cc3c(=O)oc4c(O)c(O)cc1c4c23 [Ellagic acid]							MAO inhibition value rMAO-B (rMAO-B): 412.24 nM rMAO-B
O=C(/C=C/c1ccc(O)c(O)c1)Nc1ccc([N+](=O)[O-])cc1Cl [Compound 1, (E)-N-(2-chloro-4-nitrophenyl)-3-(3,4-dihydroxyphenyl)acrylamide]	6.39 ± 0.007	6.292 ± 0.007	42.34 ± 0.077	0.209	8.87 ± 0.005	230 to 231	
O=C(/C=C/c1ccc(O)c(O)c1)O[C@H](Cc1ccc(O)c(O)c1)C(=O)O [rosmarinic acid]							Monoamine oxidase-B inhibition in words (monoamine oxidase-B): did not produce significant monoamine oxidase-B inhibition
O=C(O)c1ccc(O)c(O)c1 [Protocatechuic acid]							MAO inhibition value rMAO-A (rMAO-A): 300 µM; MAO inhibition value rMAO-B (rMAO-B): 2411 µM
O=C(/C=C/c1ccc(O)c(O)c1)Oc1cccc(O)c1 [Compound 9, (E)-3-hydroxyphenyl 3-(3,4-dihydroxyphenyl)acrylate]	10.57 ± 0.004	9.907 ± 0.014	27.25 ± 0.004	0.379	10.33 ± 0.012	198 to 198.4	
C=CCc1ccc(OC(=O)/C=C/c2ccc(O)c(O)c2)c(OC)c1 [Compound 7, (E)-4-allyl-2-methoxyphenyl 3-(3,4-dihydroxyphenyl)acrylate]	11.22 ± 0.012	12.78 ± 0.024	24.14 ± 0.017	0.291	7.03 ± 0.022	161 to 161.7	Mode of inhibition (hMAO-A) (hMAO-A [5]): competitive inhibition mode
O=C(/C=C/c1ccc(O)c(O)c1)Nc1cccc2ccccc12 [Compound 5, (E)-3-(3,4-dihydroxyphenyl)-N-(naphthalen-1-yl)acrylamide]	20.8 ± 0.003	17.64 ± 0.005	10.8 ± 0.024	4.653	50.26 ± 0.035	176 to 176.3	Vmax in Lineweaver–Burk plot (hMAO-B) (hMAO-B [6]): same Vmax value at several concentrations
O=C(O)/C=C/c1ccc(O)c(O)c1 [Caffeic acid, reference compound]	9.679 ± 0.013	8.868 ± 0.011	22.88 ± 0.009	0.512	11.72 ± 0.044		Monoamine oxidase-B inhibition in words (monoamine oxidase-B): did not produce significant monoamine oxidase-B inhibition; IC50 (MAO-A): > 1000 µM; Inhibition of MAO-A activity (MAO-A): up to 40.4%
CCNC(=O)/C=C/c1ccc(O)c(O)c1 [Compound 10, (E)-3-(3,4-dihydroxyphenyl)-N-ethylacrylamide]	11.34 ± 0.078	11.39 ± 0.042	12.95 ± 0.046	1.947	25.22 ± 0.015		
O=C1O[C@H]([C@@H](O)CO)C(O)=C1O [L-Ascorbic acid, reference compound]		8.12 ± 0.082					
O=C(O)c1cc(O)c(O)c(O)c1 [Gallic acid]							MAO inhibition value hMAO-A (hMAO-A [7]): 9.49 ± 0.83 hMAO-A µM
Cc1ccc(C(C)C)cc1OC(=O)/C=C/c1ccc(O)c(O)c1 [Compound 8, (E)-5-isopropyl-2-methylphenyl 3-(3,4-dihydroxyphenyl)acrylate]	11.94 ± 0.025	11.88 ± 0.008	27.26 ± 0.072	0.724	19.75 ± 0.066	182 to 182.6	
O=C(O)/C=C/c1ccccc1 [Trans-Cinnamic acid]							MAO inhibition value rMAO-A (rMAO-A): 6.47 ± 0.73 µM; MAO inhibition value rMAO-B (rMAO-B): 1.21 ± 0.071 µM
O=C(/C=C/c1ccc(O)c(O)c1)OCCc1ccccc1 [CAPE, caffeic acid phenethyl ester]							MAO-B inhibition in words (MAO-B): inhibiting MAO-B
O=C(/C=C/c1ccc(O)c(O)c1)Nc1ccc(Br)cc1 [Compound 3, (E)-N-(4-bromophenyl)-3-(3,4-dihydroxyphenyl)acrylamide]	13.56 ± 0.003	12.56 ± 0.021	21.14 ± 0.025	0.838	17.72 ± 0.006		
O=C(/C=C/c1ccc(O)c(O)c1)Nc1ccc(Cl)cc1[N+](=O)[O-] [Compound 2, (E)-N-(4-chloro-2-nitrophenyl)-3-(3,4-dihydroxyphenyl)acrylamide]	8.09 ± 0.042	8.544 ± 0.015	44.42 ± 0.014	0.191	8.51 ± 0.017	200 to 202	
O=C(/C=C/c1ccc(O)c(O)c1)Nc1cccc(F)c1 [Compound 4, (E)-3-(3,4-dihydroxyphenyl)-N-(3-fluorophenyl)acrylamide]	9.19 ± 0.001	9.486 ± 0.017	57.88 ± 0.029	0.319	18.47 ± 0.007		
CC1CCC(C(C)C)C(OC(=O)/C=C/c2ccc(O)c(O)c2)C1 (stereo not shown) [Compound 12, (E)-2-isopropyl-5-methylcyclohexyl 3-(3,4-dihydroxyphenyl)acrylate]	15.37 ± 0.054	14.65 ± 0.026	48.54 ± 0.077	0.453	22.02 ± 0.018		
